Laboratory results: PMC9627624, “Molecular iodine-promoted oxidative cyclization for the synthesis of 1,3,4-thiadiazole-fused- [1,2,4]-thiadiazole incorporating 1,4-benzodioxine moiety as potent inhibitors of α-amylase and α-glucosidase: In vitro and in silico study” (Frontiers in Chemistry, 2022)

Compound | melting point
COc1ccc(/N=c2\snc3sc(C4COc5ccccc5O4)nn23)cc1O (stereo not shown) [Compound 20] | 212 to 213 °C
Cc1cccc(/N=c2\snc3sc(C4COc5ccccc5O4)nn23)c1 (stereo not shown) [Compound 19] | 186 to 187 °C
O=[N+]([O-])c1ccc(/N=c2\snc3sc(C4COc5ccccc5O4)nn23)cc1 (stereo not shown) [Compound 1] | 210 to 211 °C
CN(C)c1ccc(/N=c2\snc3sc(C4COc5ccccc5O4)nn23)cc1 (stereo not shown) [Compound 9] | 206 to 207 °C
Fc1cccc(/N=c2\snc3sc(C4COc5ccccc5O4)nn23)c1 (stereo not shown) [Compound 24] | 194 to 195 °C
Cc1ccc(/N=c2\snc3sc(C4COc5ccccc5O4)nn23)cc1 (stereo not shown) [Compound 16] | 187 to 188 °C
COC(=O)c1ccc(/N=c2\snc3sc(C4COc5ccccc5O4)nn23)cc1 (stereo not shown) [Compound 14] | 216 to 217 °C
O=[N+]([O-])c1ccccc1/N=c1\snc2sc(C3COc4ccccc4O3)nn12 (stereo not shown) [Compound 10] | 209 to 210 °C
Fc1ccccc1/N=c1\snc2sc(C3COc4ccccc4O3)nn12 (stereo not shown) [Compound 23] | 193 to 194 °C
Cc1ccccc1/N=c1\snc2sc(C3COc4ccccc4O3)nn12 (stereo not shown) [Compound 15] | 188 to 189 °C
Clc1cccc(/N=c2\snc3sc(C4COc5ccccc5O4)nn23)c1 (stereo not shown) [Compound 17] | 203 to 204 °C
Clc1ccc(/N=c2\snc3sc(C4COc5ccccc5O4)nn23)cc1 (stereo not shown) [Compound 13] | 204 to 205 °C

Continued, values first:

melting point | Compound
214 to 215 °C | Oc1cc(O)c(/N=c2\snc3sc(C4COc5ccccc5O4)nn23)c(O)c1 (stereo not shown) [Compound 8]
200 to 201 °C | Oc1cc(O)cc(/N=c2\snc3sc(C4COc5ccccc5O4)nn23)c1 (stereo not shown) [Compound 3]
201 to 202 °C | Oc1ccc(/N=c2\snc3sc(C4COc5ccccc5O4)nn23)c(O)c1 (stereo not shown) [Compound 2]
199 to 200 °C | Oc1ccc(O)c(/N=c2\snc3sc(C4COc5ccccc5O4)nn23)c1 (stereo not shown) [Compound 6]
191 to 192 °C | Oc1cccc(/N=c2\snc3sc(C4COc5ccccc5O4)nn23)c1 (stereo not shown) [Compound 7]
201 to 202 °C | Oc1ccc(/N=c2\snc3sc(C4COc5ccccc5O4)nn23)cc1O (stereo not shown) [Compound 5]
198 to 199 °C | Oc1cccc(/N=c2\snc3sc(C4COc5ccccc5O4)nn23)c1O (stereo not shown) [Compound 22]
